Literature values, collected in PubChem BioAssay AID1259409 (Chemical Carcinogenesis Research Information System (CCRIS), 2018).

Test system: rodent chemically induced tumor inhibition, incidence and multiplicity
Assay: CCRIS tumor inhibitor studies
Details: Carcinogen: AZOXYMETHANE, 25843-45-2, Dose [Inhibitor]: 0, Route [Inhibitor]: ORAL, Species: RAT, Strain/Sex: F344/MALE, Dose [Carcinogen]: 15 MG/KG BW 1/WK FOR 3 WK, Promoter: NONE USED

Structure (SMILES): O=C(O)c1ccc(O)c(O)c1
- tumour outcome (control, treated, inhibition, significance) (500 PPM IN DIET FOR 4 WK BEGINNING 1 WK PRIOR TO CARCINOGEN TREATMENT (STUDY DURATION: 32 WK), Target Tissue: Type of Lesion: COLON: ADENOCARCINOMA): 75%, 55%, 27%, not significant
- tumour outcome (control, treated, inhibition, significance) (500 PPM IN DIET FOR 4 WK BEGINNING 1 WK PRIOR TO CARCINOGEN TREATMENT (STUDY DURATION: 32 WK), Target Tissue: Type of Lesion: COLON: ADENOMA): 10%, 5%, 50%, not significant
- tumour outcome (control, treated, inhibition, significance) (500 PPM IN DIET FOR 4 WK BEGINNING 1 WK PRIOR TO CARCINOGEN TREATMENT (STUDY DURATION: 32 WK), Target Tissue: Type of Lesion: LARGE INTESTINE: ADENOCARCINOMA): 15/20 (75%), 11/20 (55%), 27%, not significant
- tumour outcome (control, treated, inhibition, significance) (500 PPM IN DIET FOR 4 WK BEGINNING 1 WK PRIOR TO CARCINOGEN TREATMENT (STUDY DURATION: 32 WK), Target Tissue: Type of Lesion: LARGE INTESTINE: ADENOMA): 2/20 (10%), 1/20 (5%), 50%, not significant
- tumour outcome (control, treated, inhibition, significance) (500 PPM IN DIET FOR 4 WK BEGINNING 1 WK PRIOR TO CARCINOGEN TREATMENT (STUDY DURATION: 32 WK), Target Tissue: Type of Lesion: SMALL INTESTINE: ADENOCARCINOMA): 6/20 (30%), 6/20 (30%), 0%, not significant
- tumour outcome (control, treated, inhibition, significance) (500 PPM IN DIET FOR 4 WK BEGINNING 1 WK PRIOR TO CARCINOGEN TREATMENT (STUDY DURATION: 32 WK), Target Tissue: Type of Lesion: SMALL INTESTINE: ADENOMA): 1/20 (5%), 0/20 (0%), 100%, not significant
- tumour outcome (control, treated, inhibition, significance) (500 PPM IN DIET FOR 28 WK BEGINNING 1 WK POST CARCINOGEN TREATMENT (STUDY DURATION: 32 WK), Target Tissue: Type of Lesion: COLON: ADENOCARCINOMA): 75%, 40%, 47%, not significant
- tumour outcome (control, treated, inhibition, significance) (500 PPM IN DIET FOR 28 WK BEGINNING 1 WK POST CARCINOGEN TREATMENT (STUDY DURATION: 32 WK), Target Tissue: Type of Lesion: LARGE INTESTINE: ADENOCARCINOMA): 15/20 (75%), 8/20 (40%), 47%, not significant
- tumour outcome (control, treated, inhibition, significance) (500 PPM IN DIET FOR 28 WK BEGINNING 1 WK POST CARCINOGEN TREATMENT (STUDY DURATION: 32 WK), Target Tissue: Type of Lesion: LARGE INTESTINE: ADENOMA): 2/20 (10%), 3/20 (15%), -50%, not significant
- tumour outcome (control, treated, inhibition, significance) (500 PPM IN DIET FOR 28 WK BEGINNING 1 WK POST CARCINOGEN TREATMENT (STUDY DURATION: 32 WK), Target Tissue: Type of Lesion: SMALL INTESTINE: ADENOCARCINOMA): 6/20 (30%), 1/20 (5%), 83%, not significant
- tumour outcome (control, treated, inhibition, significance) (500 PPM IN DIET FOR 28 WK BEGINNING 1 WK POST CARCINOGEN TREATMENT (STUDY DURATION: 32 WK), Target Tissue: Type of Lesion: SMALL INTESTINE: ADENOMA): 1/20 (5%), 0/20 (0%), 100%, not significant
- tumour outcome (control, treated, inhibition, significance) (1000 PPM IN DIET FOR 4 WK BEGINNING 1 WK PRIOR TO CARCINOGEN TREATMENT (STUDY DURATION: 32 WK), Target Tissue: Type of Lesion: COLON: ADENOCARCINOMA): 75%, 30%, 60%, p<0.05
- tumour outcome (control, treated, inhibition, significance) (1000 PPM IN DIET FOR 4 WK BEGINNING 1 WK PRIOR TO CARCINOGEN TREATMENT (STUDY DURATION: 32 WK), Target Tissue: Type of Lesion: COLON: ADENOMA): 10%, 9%, 10%, not significant
- tumour outcome (control, treated, inhibition, significance) (1000 PPM IN DIET FOR 4 WK BEGINNING 1 WK PRIOR TO CARCINOGEN TREATMENT (STUDY DURATION: 32 WK), Target Tissue: Type of Lesion: LARGE INTESTINE: ADENOCARCINOMA): 15/20 (75%), 7/23 (30%), 60%, p<0.006
- tumour outcome (control, treated, inhibition, significance) (1000 PPM IN DIET FOR 4 WK BEGINNING 1 WK PRIOR TO CARCINOGEN TREATMENT (STUDY DURATION: 32 WK), Target Tissue: Type of Lesion: LARGE INTESTINE: ADENOMA): 2/20 (10%), 2/23 (9%), 10%, not significant
- tumour outcome (control, treated, inhibition, significance) (1000 PPM IN DIET FOR 4 WK BEGINNING 1 WK PRIOR TO CARCINOGEN TREATMENT (STUDY DURATION: 32 WK), Target Tissue: Type of Lesion: SMALL INTESTINE: ADENOCARCINOMA): 6/20 (30%), 8/23 (35%), -17%, not significant
- tumour outcome (control, treated, inhibition, significance) (1000 PPM IN DIET FOR 4 WK BEGINNING 1 WK PRIOR TO CARCINOGEN TREATMENT (STUDY DURATION: 32 WK), Target Tissue: Type of Lesion: SMALL INTESTINE: ADENOMA): 1/20 (5%), 1/23 (4%), 20%, not significant
- tumour outcome (control, treated, inhibition, significance) (1000 PPM IN DIET FOR 28 WK BEGINNING 1 WK POST CARCINOGEN TREATMENT (STUDY DURATION: 32 WK), Target Tissue: Type of Lesion: COLON: ADENOCARCINOMA): 75%, 22%, 71%, p<0.05
- tumour outcome (control, treated, inhibition, significance) (1000 PPM IN DIET FOR 28 WK BEGINNING 1 WK POST CARCINOGEN TREATMENT (STUDY DURATION: 32 WK), Target Tissue: Type of Lesion: COLON: ADENOMA): 10%, 9%, 10%, not significant
- tumour outcome (control, treated, inhibition, significance) (1000 PPM IN DIET FOR 28 WK BEGINNING 1 WK POST CARCINOGEN TREATMENT (STUDY DURATION: 32 WK), Target Tissue: Type of Lesion: LARGE INTESTINE: ADENOCARCINOMA): 15/20 (75%), 5/23 (22%), 71%, p<0.008
